Assay results published in US7960435B2, “Anti-cancer agents and androgen inhibition activity compound” (University of Maryland, Baltimore, priority 2006, dated 2011).
Residue numbers refer to the chain shown, from its start. Read-outs that look alike come from different tables or passages of the source.

Assays:
LNCaP cells = test: Cell growth inhibition (MTT colorimetric assay), LNCaP; format: cell-based, human; conditions: for GI50: LNCaP (mutant AR), MTT, means of three experiments, called IC50, read-out: Cytotoxicity GI50 (nM) LNCaP
From the text: (§1) Lead optimization of BTB01434 and further biological studies: BTB01434 (Maybridge) was used as a lead molecule to synthesize new molecules. Although this compound was not as potent as some of the others (cf. Table 4), it was chosen for its ease of modification. New compounds (6-23) were developed using the diaryl sulfonamide compound BTB01434 (FIG. 6) as a scaffold. […] Including new BTB01434 analogs, including diaryl sulfonamide analogs bearing various substituents on the phenyl rings (series A), aryl amide analogs (series B), and amine analogs (series C). These new compounds were evaluated for cell growth inhibition in two human prostate cancer cell lines, (LNCaP and PC-3) by MTT assay. Based on the structures and anti-prostate cancer activities of the new compounds, a structure-activity relationship (SAR) was formulated.
Androgen-dependent LNCaP cells were obtained from American Type Culture Collection (Rockville, Md., USA). Cells were maintained in RPMI 1640 medium supplemented with 10% fetal bovine serum (Atlanta Biologicals, Lawrenceville, Ga., USA) and 1% penicillin/streptomycin. Cells were grown as a monolayer in T75 or T150 tissue culture flasks in a humidified incubator (5% CO2, 95% air) at 37° C.
(§2) LNCaP cells were seeded in 24 well plates (Corning Costar) at a density of 2×10^4 cells per well per 1 mL of medium. Cell were allowed to adhere to the plate for 24 hours and then treated with different concentrations of ARDAs dissolved in DMSO. Cells were treated for five days with renewal of ARDA and media on day 3. On the fifth day, medium was renewed and 100 μL of MTT (3-(4,5-dimethylthiazol-2-yl)-2,5-diphenyl-2H-tetrazolium bromide from Sigma) solution (0.5 mg MTT/mL of medium) was added to the medium such that the ratio of MTT:medium was 1:10. The cells were incubated with MTT for 2 hours. The medium was then aspirated and 500 μL of DMSO was added to solubilize the violet MTT-formazan product. The absorbance at 560 nm was measured by spectrophotometry (Victor 1420 multilabel counted, Wallac). For each concentration of ARDA there were triplicate wells in each independent experiment. IC50 values were calculated by nonlinear regression analysis using GraphPad Prism software.

PC-3 cells = test: Cell growth inhibition (MTT assay), PC-3; format: cell-based, human; conditions: Homo sapiens, PC-3 (AR null), means of three experiments, called IC50, read-out: Cytotoxicity GI50 (nM) PC-3
From the text: as §1
Inhibition of prostate cancer cell proliferation and SAR: The exemplary compounds were then tested for their ability to inhibit cell viability in both the LNCaP (mutant AR) and PC-3 (AR null) cell lines (Table 5).
as §2

wild-type AR = molecular target: T1, wild-type AR (Homo sapiens, UniProt P10275); test: Competitive androgen receptor binding with [3H]-R1881 in PC-3-AR cells; conditions: PC-3-AR cells
T1 construct: expressed in transfected cells; host or cells: PC-3 (stably transfected, PC-3-AR)
T1 sequence (P10275 1-920): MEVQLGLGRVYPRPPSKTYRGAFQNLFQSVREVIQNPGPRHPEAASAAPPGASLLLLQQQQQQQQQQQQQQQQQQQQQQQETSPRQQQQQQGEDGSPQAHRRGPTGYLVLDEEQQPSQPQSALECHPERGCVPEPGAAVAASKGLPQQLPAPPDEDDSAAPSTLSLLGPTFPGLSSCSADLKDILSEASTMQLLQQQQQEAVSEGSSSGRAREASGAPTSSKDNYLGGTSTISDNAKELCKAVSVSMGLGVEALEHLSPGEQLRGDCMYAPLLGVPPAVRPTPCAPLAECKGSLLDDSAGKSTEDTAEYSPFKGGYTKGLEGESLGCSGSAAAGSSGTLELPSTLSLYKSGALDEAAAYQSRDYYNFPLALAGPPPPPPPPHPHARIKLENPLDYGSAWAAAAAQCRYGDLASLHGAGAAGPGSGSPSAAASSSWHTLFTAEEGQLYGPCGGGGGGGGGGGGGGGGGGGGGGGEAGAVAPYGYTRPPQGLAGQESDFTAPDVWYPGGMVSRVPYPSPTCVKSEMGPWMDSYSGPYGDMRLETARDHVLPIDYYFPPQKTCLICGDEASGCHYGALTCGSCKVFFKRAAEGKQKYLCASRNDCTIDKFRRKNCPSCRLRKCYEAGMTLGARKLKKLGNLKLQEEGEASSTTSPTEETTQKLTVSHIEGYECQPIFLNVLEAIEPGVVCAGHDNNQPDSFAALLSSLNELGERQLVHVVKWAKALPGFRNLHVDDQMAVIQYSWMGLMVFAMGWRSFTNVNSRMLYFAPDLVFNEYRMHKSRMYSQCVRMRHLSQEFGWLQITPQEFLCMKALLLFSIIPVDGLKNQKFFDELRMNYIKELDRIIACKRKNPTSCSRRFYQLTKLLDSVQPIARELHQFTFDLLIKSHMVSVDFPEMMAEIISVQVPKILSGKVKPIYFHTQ
Experimental: (§3) In both cell lines, compounds 9 and 11 were able to effectively compete with labeled R1881 in a dose-dependent fashion (FIG. 11). In PC-3-AR cells compound II reduced [^3H]-R1881 binding by 65% and 80% at 10 μM and 20 μM, respectively. […] Compound 9 reduced [^3H]-R1881 binding by 50% and 65% at 10 μM and 20 μM, respectively, and was equipotent in both cell lines.
(§4) These assays were performed as previously described.^10

mutated AR = molecular target: T2, mutated AR (Homo sapiens, UniProt P10275, T878A); test: Competitive androgen receptor binding with [3H]-R1881 in LNCaP cells
T2 construct: we utilized the LNCaP cell line which contains a mutant AR; host or cells: LNCaP
T2 sequence (P10275 1-920 T878A): T1 sequence (P10275 1-920) with T878A
Experimental: as §3, §4

[1] = system: AR-mediated transcription (LNCaP-AR); test: Luciferase transactivation assay in LNCaP cells transfected with ARR2-Luc; format: cell-based, human; conditions: for effect on luciferase activity, compound alone: without DHT
Experimental: FIG. 12. […] Cells in steroid-free medium were treated with vehicle, or increasing concentrations of either 9 or 11 with and without 5 nM DHT for 18 h. Cells were then assayed for luciferase activity using a know assay.^10
To determine if the compounds act as AR agonists or antagonists, androgen regulated transcriptional activation studies were performed in LNCaP cells transiently transfected with the probasin luciferase reported construct ARR2-Luc.
as §4

Row | SMILES | GI50 (LNCaP cells; Homo sapiens, LNCaP) | GI50 (LNCaP cells) | fold less potent than compound 8 (GI50) (LNCaP cells; LNCaP cells) | fold more potent than compound 6 (GI50) (LNCaP cells; LNCaP cells) | melting point | GI50 (PC-3 cells) | reduction of [3H]-R1881 binding (wild-type AR; 10 μM) | reduction of [3H]-R1881 binding (wild-type AR; 20 μM) | reduction of [3H]-R1881 binding (mutated AR; 10 μM) | reduction of [3H]-R1881 binding (mutated AR; 20 μM) | effect on luciferase activity, compound alone ([1]; 0.1 μM) | reduction of luciferase expression in the presence of DHT ([1]; 10 μM, with 5 nM DHT) | effect on luciferase activity, compound alone ([1]; 10 μM)
1 | O=[N+]([O-])c1ccccc1NS(=O)(=O)c1ccccc1 [Compound 7, (2-Nitrophenyl)(phenylsulfonyl)amine] | 14.8 nM | 14.1 nM | 5 fold | 5.6 fold | 102 °C | 22900 nM | – | – | – | – | – | – | –
2 | Cc1ccc(NS(=O)(=O)c2ccc(F)cc2)c([N+](=O)[O-])c1 [Compound 9, [(4-Fluorophenyl)sulfonyl](4-methyl-2-nitrophenyl)amine] | 2.34 nM | – | – | – | – | 850 nM | 50% | 65% | 50% | 65% | slight increase | 50% | did not increase
